Data published in patent US9902964B2, “Growth arrested cells useful for producing compounds” (priority 2014, dated 2018).

Experiments:
Format in all cases: cell-based, Escherichia coli
[1] = system: HipA-arrested cells (MG1655/pHipA); test: β-Lactam susceptibility of HipA-arrested cells (optical density, lysis)
Experimental: Biological triplicates of MG1655/pHipA cells were inoculated into 30 ml of MOPS-M9 medium and grown at 37° C. until an OD600 of 0.5 was reached. aTc was added to reach 50 ng/ml, and the cultures were split into two 12-ml subcultures. At 2.5 h later, carbenicillin (100 μg/ml) was added to one subculture and optical densities were measured. For comparison of the levels of β-lactam tolerance of WT and ΔrelA cultures expressing HipA, biological triplicates of the WT/pHipA and ΔrelA/pHipA strains were inoculated into 5 ml of MOPS-M9 medium and grown at 37° C. HipA expression was induced with 50 ng/ml aTc when the OD600 reached ˜0.3. Ampicillin was added to reach a final concentration of 100 μg/ml 1.5 h later, and optical densities were monitored.

[2] = system: persister cells of MG1655; test: Antibiotic resistance of naturally occurring persister cells isolated by ofloxacin treatment (CFU count); settings: chloramphenicol 30 μg/ml, ampicillin 100 μg/ml, 4 h at 37° C.; P=0.3, unpaired t test
Experimental: Persister cells were prepared in triplicate by ofloxacin treatment of stationary-phase cultures based on a previously described protocol (32). Overnight cultures of MG1655 cells grown in LB medium for 20 h were treated with ofloxacin for 3 h at 37° C., after which cells were pelleted, washed with fresh LB medium, pelleted again, and resuspended in antibiotic-free LB medium. After resuspension, chloramphenicol (30 μg/ml) and ampicillin (100 μg/ml) were added singly or in combination, and cells were incubated at 37° C. with shaking for 4 h. Samples were removed, pelleted once, washed with LB medium, resuspended, and serially diluted. A 10-μl volume of the serial dilutions was spot plated on an LB agar plate, which was incubated at 37° C. overnight. Colonies were counted the following day.

[3] = system: ppGpp concentration within HipA-arrested cells; test: ppGpp measurements performed with HPLC in HipA-arrested cells; settings: chloramphenicol treatment, within 15 min
Source text: ppGpp and nucleotides were extracted from cells grown on agar-supported nylon filters, following a protocol inspired by the rapid-quenching and metabolite extraction approach described in reference 25. We adopted this technique to avoid perturbing ppGpp levels with lengthy cell harvesting and extraction procedures, as the enzymes that generate and degrade ppGpp are known to respond rapidly to external conditions (26). Briefly, cells grown in liquid medium to an optical density at 600 nm (OD600) of ˜0.1 were transferred to nylon filters and adhered to solid agar plates containing our modified MOPS-M9 medium. […] Concentrations of ppGpp and GTP were measured using anion-exchange chromatography and a Partisil 5 Sax Rac II column (catalog no. 422-227; Hichrom Limited), with a silica Nova-Pak guard column (catalog no. WAT046845; Whatman) per a protocol described previously (26) and modified for brevity. […] The column temperature was maintained at 50° C., and absorbance was monitored at 254 nm. […]
Cultures of MG1655/pHipA cells were inoculated into 40 ml of MOPS-M9 medium in 250-ml unbaffled Erlenmeyer flasks and incubated with shaking at 37° C. […] Samples were processed per a previously published protocol (27) using Picogreen (Invitrogen) for DNA quantification. […] Fluorescence was measured using a Spectromax M2 reader.

MG1655/pHipA cells = test: Measurement of DNA and RNA concentrations in HipA-arrested cells; settings: 30 μg/ml chloramphenicol added 1 h after HipA induction
Experimental: Cultures of MG1655/pHipA cells were inoculated into 40 ml of MOPS-M9 medium in 250-ml unbaffled Erlenmeyer flasks and incubated with shaking at 37° C. When the OD600 reached ˜0.3, aTc was added to reach 50 ng/ml. After 1 h of HipA induction, a sample was removed for DNA or RNA extraction, the cultures were split into two 15-ml cultures, and 30 μg/ml chloramphenicol was added to one of the cultures. For comparison of DNA and RNA synthesis results in WT and ΔrelA strains expressing HipA, biological triplicates of the WT/pHipA and ΔrelA/pHipA strains were grown in MOPS-M9 medium at 37° C. to an OD600 of 0.2 to 0.4, at which point HipA expression was induced by addition of aTc to 50 ng/ml. Samples were processed per a previously published protocol (27) using Picogreen (Invitrogen) for DNA quantification. RNA was quantified by measurement of fluorescence using the Quant-It assay (catalog no. Q33140; Invitrogen) following the manufacturer's instructions. Fluorescence was measured using a Spectromax M2 reader.

SMILES: CC1(C)S[C@@H]2[C@H](NC(=O)[C@H](N)c3ccccc3)C(=O)N2[C@H]1C(=O)O [ampicillin]
- ampicillin resistance of ΔrelA strain expressing HipA ([1]; ampicillin 100 μg/ml, ΔrelA/pHipA strain, FIG. 9D): did not confer ampicillin resistance
- reduction in CFU of isolated persisters [2]: 41%±13%

SMILES: CC1(C)S[C@@H]2[C@H](NC(=O)C(C(=O)O)c3ccccc3)C(=O)N2[C@H]1C(=O)O (stereo partly drawn) [carbenicillin]
- lysis of HipA-arrested WT cells ([1]; carbenicillin 100 μg/ml, HipA induced with 50 ng/ml aTc, FIG. 9C): did not induce lysis

SMILES: O=C(N[C@H](CO)[C@H](O)c1ccc([N+](=O)[O-])cc1)C(Cl)Cl [chloramphenicol]
- decrease of ppGpp concentration within HipA-arrested cells [3]: 60% (±20%)
- inhibition of DNA synthesis in HipA-arrested cells (MG1655/pHipA cells; FIG. 9A): relieved inhibition
- inhibition of RNA synthesis in HipA-arrested cells (MG1655/pHipA cells; FIG. 9B): relieved inhibition
